Data from patent US20020090619A1, “Methods for identifying mitochondrial divalent cation transporters” (priority 2000, published 2002).

What was measured:
yeast mitochondria [1] = test: Membrane potential ΔΨ of isolated yeast mitochondria (safranin O); format: biochemical, Saccharomyces cerevisiae
Experimental: (§1) The yeast strain W303-1A (Saccharomyces cerevisiae) was grown aerobically at 30° C. in a medium containing 2% lactate, 1% yeast extract, 2% peptone, 0.05% dextrose, and 0.01% adenine at pH 5.0, and cells were harvested during the logarithmic phase (A600=1.8−2.2). Mitochondria were isolated from spheroplasts as previously described (Jung et al., 1997 J. Biol. Chem. 272:21104), except that 0.6 M sucrose was used in the homogenization medium instead of 0.6 M mannitol (Daum et al., 1982 J. Biol. Chem. 257:13028). The resulting preparations were maintained on ice and were suspended in 0.6 M mannitol 20 mM HEPES (K+) (pH 6.8), containing 0.75 mg/ml BSA and 0.1 mM EGTA. Protein concentration was determined by a reduced volume Biuret method in which 50 μl of the final preparation were solubilized by adding an equal volume of 10% deoxycholate (Na+), with 0.4 ml of Biuret reagent added to the resulting mixture. BSA was employed as the standard.
Unless otherwise noted, mitochondria were incubated at 1 mg protein/ml and at approximately 25° C. in a medium that contained 0.6 M mannitol, 10 mM Pi (K+), 10 mM Hepes (TEA+), pH 7.2, plus 1 mM ethanol as an oxidizable substrate. Compounds having a low solubility in water were added from stock solutions prepared in methanol or DMSO. Ca2+ transport and membrane potential were monitored using the indicating dyes antipyrylazo III (ΔA720-790) and safranin O (ΔA511-533), respectively (Akerman et al., 1976 FEBS Lett. 68:191; Scarpa et al., 1978 Biochem. 17:1378). An SLM Aminco DW-2C spectrophotometer operated in the dual wavelength mode was employed for these purposes. The same instrument, operated in split beam mode, was used to monitor mitochondrial swelling as a decrease in apparent absorbance of mitochondrial suspensions at 540 nm. Oxygen consumption data were obtained using a Clark-type electrode in parallel experiments. Atomic absorption spectroscopy was utilized to monitor the transport of other cations by yeast mitochondria. Briefly, samples were taken at appropriate times and the mitochondria were rapidly sedimented in a microcentrifuge. After carefully removing supernatants, the pellets were solubilized with 2 N percholoric acid (overnight) and centrifuged a second time. The resulting supernatants were diluted with an appropriate volume of distilled water and the concentration of the cation in question was subsequently determined.

[2] = test system: isolated yeast mitochondria; test: Ca2+ transport in isolated yeast mitochondria expressing aequorin (luminescence); format: biochemical, Saccharomyces cerevisiae; conditions: FIG. 24
Experimental: For preculture, the transformant was inoculated into 50 ml of SC-U plus 2% glucose, and incubated in an air shaker at 180 rpm and 30° C. At 24 hr, the preculture was transferred to 500 ml of a medium containing 1% yeast extract, 2% peptone, 2% lactate, 1% galactose, 0.012% adenine, pH 5 w/NaOH, and growth was continued under conditions which were otherwise the same. Cells were harvested after an additional 24 hr, spheroplasts were prepared using zymolyase, and mitochondria were isolated by the method of Daum et al. (1982) as previously described (Jung et al., 1997). The final pellet was resuspended at ˜20 mg protein/ml in 0.6 M mannitol, 20 mM HEPES (K^+ salt, pH 6.8). Apoaequorin in the intact or disrupted mitochondria was reconstituted by incubation with coelenterazine as described above for cells.
For most experiments, the mitochondria were present at 0.4 mg protein/ml in a standard medium that contained 0.3 M KCl, 20 mM HEPES, (K^+ salt, pH 7.10), 10 mM KH2PO4, 2 mM EGTA, and 2 mM MgCl2. Other additions are described in greater detail below. Ca^2+ buffers were formed by adding various amounts of CaCl2 to this EGTA containing medium. The free Ca^2+ concentrations which resulted were calculated using a computer program (Brooks et al., 1992 Anal. Biochem. 201:119).
Luminescence measurements were carried out in 6×50 mm culture tubes, using a total volume of 0.3 ml, and were started by injection of 5-20 μl of mitochondria or cells. A SAI model 3000 integrating photometer was employed, with AJD sampling at 0.4 seconds intervals driven by Asyst software. Values were transformed into corresponding Ca^2+ concentrations by computer assisted calculations based upon published calibration methods (Allen et al., 1977 Science 195:996; Brini et al., 1995 J. Biol. Chem. 270:9896). For each value, the ratio of observed luminescence (L) to the potential luminescence remaining (Lmax) was calculated, and compared to a calibration curve which relates this ratio to the free Ca^2+ concentration. Thus, complete calibrated progress curves were generated. The total luminescence available initially (Ltotal) must be known and was determined in separate experiments, wherein a saturating Ca^2+ concentration (20 μM) is employed to discharge the aequorin completely. This value allows Lmax to be calculated at any time, as Ltotal minus the sum of luminescence that already occurred.
The calibration data were obtained at an ionic strength of 335 mM and in the presence of 1 mM Mg^2+, to mimic conditions in the mitochondrial matrix, because both factors influence the affinity of aequorin for Ca2+ (Cobbold et al., 1987 Biochem. J. 248:313). Luminescence values were corrected for low background values that are obtained when Ca^2+ is absent before conducting further calculations.

[3] = test system: Saccharomyces cerevisiae strain K473; test: Growth inhibition by Ca2+ of pmc1 mutant yeast; format: cell-based; conditions: YPD medium, 30° C., 22 hr; read-out: 50% decrease in relative growth (IC50)
Experimental: This example describes growth inhibition by Ca^2+ of Saccharomyces cerevisiae strain K473, a pmc1 mutant lacking function in a vacuolar Ca2+ ATPase (Cunningham et al., 1996, Molec. Cell. Biology 16:2226-37; Cunningham et al., 1994 J. Cell Biol. 124:351-363). The strain was grown at 30° C. on standard YPD medium supplemented with 0, 50, 100, 200 or 300 mM CaCl2, as indicated. […]

[4] = test system: PMC1/PMR1 double ATPase mutant cells; conditions: Cunningham et al., 1994; cited from earlier work
[5] = ETH 129 mediated cation transport into Quin-2 loaded POPC vesicles; format: biochemical; conditions: 1.0 mM CaCl2, no Val, FIG. 5
Experimental: Unilamellar vesicles loaded with Quin-2 were prepared from 1-palmitoyl-2-oleoyl-sn-glycerophosphatidylcholine (POPC) by freeze-thaw extrusion (Erdahl et al., 1994 Biophys. J. 66:1678; Erdahl et al., 1995 Biophys. J. 69:2350). The formation medium contained 5 mM Quin-2 (K+), 10 mM Hepes (K+), pH 7.00, and 100 mM KCl. A high internal K+ concentration was sought to allow the generation of membrane potentials of varying magnitude (see below). The preparations obtained were applied to Sephadex™ G-50 mini-columns (Pharmacia, Piscataway N.J.) and eluted by low speed centrifugation (Fry et al., 1978 Anal. Biochem. 90:809), to replace the external medium with a 10 mM Hepes buffer (Na+), pH 7.00 (Erdahl et al., 1994 Biophys. J. 66:1678; Erdahl et al., 1995 Biophys. J. 69:2350). The nominal concentration of POPC in final preparations was determined as lipid phosphorus (Bartlett, 1959 J Biol. Chem. 234:466) and was near 80 mM. The average diameter of these vesicles was 71 nm as determined by freeze-fracture electron microscopy (Chapman et al., 1990 Chem. Phys. Lipids 55:73). They contained entrapped K+ at approximately 125 mM, as determined by atomic absorption spectroscopy, and Quin-2 at approximately 6 mM. The latter value was determined by titrating lysed vesicles with a standard solution of CaCl2 and was about one third of the expected value (Erdahl et al., 1995 Bipohys. J. 69:3250). The high solute level in the formation medium reduced the efficiency of Quin-2 entrapment by reducing the effectiveness of a freeze-thaw driven solute concentrating mechanism that normally elevates the internal concentrations of solutes, relative to the external medium (Chapman et al., 1990 Chem. Phys. Lipids 55:73; Chapman et al., 1990 Chem. Phys. Lipids 60:201).
POPC vesicles containing Quin-2 were utilized at a nominal phospholipid concentration of 1.0 mM, and at 25° C. The external medium contained polyvalent cation salts as described below, 100 mM NaCl, or mixtures of NaCl and KCl totaling […], and 10 mM Hepes, pH 7.00, unless otherwise noted. The medium pH was adjusted with NaOH that had been passed over Chelex 100 columns to remove contaminating cations (Erdahl et al., 1994 Biophys. J. 66:1678). In most cases an inside negative membrane electrical potential was present during the experiments. This was generated by the presence of 0.5 μM valinomycin (Val), which transports K+ out of the vesicles electrogenically (Erdahl et al., 1994 Biophys. J. 66:1678). The magnitude of the potential was controlled by varying the concentration ratio of Na+ to K+ in the external medium. A TPP+electrode was used to measure the potential (Broekemeier et al, 1998 Biochem. 37:13059), and thereby to verify that the calculated values were obtained. For these purposes the incubation medium contained 2.0 μM TPP.Cl and the entrapped volume was taken to be 2.02 μl/ml at a nominal POPC concentration of 1.0 mM (Chapman et al., 1990 Chem. Phys. Lipids 55:73).
Val was omitted when an imposed membrane potential was not desired, or in some cases 5 μM of the protonophore carbonyl cyanide m-chlorophenylhydrazone (CCP) was present instead of Val.
The transport of polyvalent cations was monitored by difference absorbance measurements which detected formation of the Quin-2:cation complex within the vesicle lumen. An Aminco DW2a spectrophotometer operated in the dual wavelength mode was employed. In addition, an Oriel No. 59800 band pass filter was used between the cuvette and the beam scrambler-photomultiplier assembly to prevent detection of the fluorescent light emitted by Quin-2. The sample wavelength for all cations was 264 nm. The reference wavelengths were at an isosbestic point in the Quin-2/Quin-2:cation complex difference spectrum of interest. These wavelengths varied slightly from cation to cation, as previously described (Erdahl et al., 1996 Biochem. 35:13817). […]

yeast mitochondria [6] = test: ETH 129 mediated Ca2+ transport in isolated yeast mitochondria (antipyrylazo III); format: biochemical, Saccharomyces cerevisiae; conditions: BSA 0.5 mg/ml, 60 μM CaCl2, 3.6 μM ETH 129, increasing oleate, FIG. 14
Experimental: as §1, with “BSA was employed as the standard.” left out
Unless otherwise noted, mitochondria were incubated at 1 mg protein/ml and at approximately 25° C. in a medium that contained 0.6 M mannitol, 10 mM Pi (K+), 10 mM Hepes (TEA+), pH 7.2, plus 1 mM ethanol as an oxidizable substrate. […] Ca2+ transport and membrane potential were monitored using the indicating dyes antipyrylazo III (ΔA720-790) and safranin O (ΔA511-533), respectively (Akerman et al., 1976 FEBS Lett. 68:191; Scarpa et al., 1978 Biochem. 17:1378). […]

Compound | effect on ΔΨ, agent alone (yeast mitochondria [1]; BSA absent, FIG. 11B) | external Ca2+ giving half-maximal rate of change in matrix Ca^2+ ([2]; nonrespiring mitochondria) [µM] | external Ca2+ giving half-maximal rate of change in matrix Ca^2+ ([2]; respiring mitochondria (0.5 mM ethanol)) [µM] | IC50 [3] [mM] | cytostatic Ca^2+ concentrations [4] [µM] | suppression of ΔΨ during titration with exogenous oleate (yeast mitochondria [1]; ETH 129, free Ca2+ and BSA available, no EGTA, FIG. 16) | oleate level above which ΔΨ is depressed (yeast mitochondria [1]; excess EGTA (2 mM), ETH 129, CaCl2, BSA present, FIG. 16) | activation of ETH 129 mediated Ca2+ transport [5] | effect of exogenous oleate on ETH 129 mediated Ca2+ accumulation (yeast mitochondria [6])
[Ca+2] [Ca2+] | little effect | 0.82 | 1.0 | 92 | ≤ 300 |  |  |  | 
CCCCCCCC/C=C\CCCCCCCC(=O)O [oleate, oleic acid] |  |  |  |  |  | began immediately | exceeded 15 nmol/mg protein | inability of oleate (a lipophilic fatty acid anion) to substitute for CCP | first inhibited further accumulation and then caused a reversal of the transport that had already occurred
